The test system of experiment [1] is hearts of aged (18-22 month old) WT mice. The experiment in a line: Reversal of age-induced cardiac fibrosis and inflammation in aged WT mice (histology, immunofluorescence, western blot). It counts as in vivo, mouse. How it is done:
(§1) There are 8 different sets of in vivo experiments in this study: • A) Phenotypic characterisation of the heart and blood vessels in global IRAP knockout mice and their WT controls treated for 4 weeks with Angiotensin (Ang) II (800 ng/kg/min; s.c.) where mouse hearts and blood vessels were compared to tissue obtained from young WT and IRAP^−/− mice treated with saline. • B) Prevention of Ang II-induced changes in the cardiovascular system following IRAP inhibitor treatment. In the prevention model, WT mice were treated with Ang II (800 ng/kg/min; s.c.)±the IRAP inhibitor (HFI-419; 500 ng/kg/min for 28 days) or HFI-vehicle (1 DMSO:3 HBC). • C) Phenotypic characterisation of the aged heart, kidney and blood vessels in the global IRAP knockout mice where aged WT and IRAP^−/− mouse hearts, kidneys and blood vessels were compared to tissue obtained from young WT and IRAP^−/− mice. • D) Reversal of the age-induced changes in the cardiovascular system following IRAP inhibitor treatment. In the reversal model, aged WT mice were treated with either saline, IRAP inhibitor (HFI-419 at 500 ng/kg/min; compound 1 at 500 ng/kg/min; compound 2 at 50 ng/kg/min) or HFI-vehicle (1 DMSO: 3 HBC) for 4 weeks. • E) Prevention of ischemic-reperfusion injury in isolated hearts taken from aged global IRAP knockout mice and aged IRAP inhibitor (HFI-419 at 500 ng/kg/min; s.c.) treated WT mice compared to age-matched vehicle-treated (1 DMSO:3 HBC; s.c.) WT controls. • F) Phenotypic characterization of cardiac function using echocardiography in the aged global IRAP knockout mice compared to aged and young WT mice. • G) Phenotypic characterization of liver steatosis in IRAP knockout mice in a high fat diet (HFD) model. • H) Reversal of the salt-induced fibrosis in the liver following IRAP inhibitor treatment.
All mice which underwent surgery were anaesthetized with Isoflurane (Isorrane) (5% induction and 2.5% maintenance) and an incision made in the midscapular region through which osmotic minipumps (Alzet model 2004, Alza Corp) were inserted for subcutaneous drug administration. The incision area was sutured with 6/0 DY silk (Dynek Pty Ltd) and antibiotic powder applied (Cicatrin, Pfizer) followed by intramuscular injection of the analgesic Cartrophen (0.1 ml of a 1.5 mg/ml stock solution; Biopharm Australia). Systolic blood pressure (SBP) was measured fortnightly using non-invasive tail-cuff plethysmography apparatus (MC4000 Blood Pressure Analysis System, Hatteras Instrument Inc) before drug treatment (week 0), at week 2 of treatment and end of treatment (week 4). At the end of drug treatment, body weight of mice was recorded. Mice were anaesthetized using Isoflurane inhalation and killed by cervical dislocation. Organs (heart, aorta, kidneys, brain, blood and tibia) were collected, with heart and aorta being dissected appropriately as described below. All organs were then snap frozen in liquid nitrogen, and stored at −80° C. if they were not used for vascular reactivity studies conducted on the day mice were killed.
To measure collagen deposition, frozen sections of heart, kidney or aorta (all 5 μm thickness) were air dried for 10 minutes and were brought through 3 times xylene (2 minutes each), and 3 times absolute alcohol washes before being rinsed in tap H2O for 30 seconds. Staining with an optimal concentration of picrosirius red (in this instance 0.05% picrosirius red diluted in saturated picric acid) was performed and left for an hour. Sections were then rinsed in water and differentiated in 0.01 M HCl for 2 minutes, followed by dehydration via 3 times absolute alcohol washes. Then, slides were brought through 3 times xylene washes before being cover slipped according to standard histological techniques using DPX as the mounting medium. […]
A general note: Immunoblotting shows a protein as a band on a membrane.

Experiment [2] deals with thoracic aortic sections from Ang II-infused WT mice. The experiment can be described thus: Angiotensin II infusion prevention model: aortic fibrosis and inflammation markers (picrosirius red, immunofluorescence). It counts as in vivo, mouse. How it is done:
as §1
To measure collagen deposition, frozen sections of heart, kidney or aorta (all 5 μm thickness) were air dried for 10 minutes and were brought through 3 times xylene (2 minutes each), and 3 times absolute alcohol washes before being rinsed in tap H2O for 30 seconds. Staining with an optimal concentration of picrosirius red (in this instance 0.05% picrosirius red diluted in saturated picric acid) was performed and left for an hour. Sections were then rinsed in water and differentiated in 0.01 M HCl for 2 minutes, followed by dehydration via 3 times absolute alcohol washes. Then, slides were brought through 3 times xylene washes before being cover slipped according to standard histological techniques using DPX as the mounting medium. Images were taken under ×20 magnification, using bright field (Olympus, BX51) and circularized polarized light microscopy (DM IRB, Leica) while percentage of positive interstitial collagen staining per total field of view was quantified using ImageJ 1.46 software (Java, NIH), and averaged out from a total of eight views as the final percentage collagen content in a particular animal.
Immunostaining was performed on either 5 μm thick transverse frozen heart sections or 5 μm thick frozen thoracic aortic. These sections were air dried and fixed in ice-cold acetone for approximately 15 minutes before washing with 0.01M PBS buffer (3×10 minutes). Sections were then incubated with 10% goat serum in 0.01M PBS for 30 minutes to reduce non-specific binding. If the primary antibody is raised in goat, this pre-blocked medium is substituted with 5% BSA in PBS and Triton-X. Next, blocking buffers were removed and the primary antibody to respective markers were applied overnight at room temperature based on the following dilution and origin of the antibodies: IRAP (1:500, in-house), α-SMA (1:500, Abcam), Vimentin (1:500, Santa Cruz), P-IκBα (1:200, Cell Signalling), F4/80 macrophage (1:100, Serotec), MCP-1 (1:100, Santa Cruz), VWF (1:500, abcam). […]

The mark [3] stands for this setting: aged WT mice, HFI-419 4 weeks, FIG. 13.
Where [4] appears, read: aged WT mice, HFI-419 4 weeks, FIG. 17.
Setting [5] is: aged WT mice, HFI-419 4 weeks, FIG. 18.
The mark [6] stands for this setting: Ang II + HFI-419, 4 weeks, FIG. 4.
The mark [7] stands for this setting: Ang II + HFI-419, 4 weeks, immunofluorescence, FIG. 3.

The source of these data is patent publication US11834663B2, “Fibrotic treatment” (Monash University, priority 2015, dated 2023).

Molecules are shown by their SMILES.

For the compound `CCOC(=O)C1=C(NC(C)=O)Oc2cc(O)ccc2C1c1cccnc1` (stereo not shown) [HFI-419], in experiment [1] (setting [3]), the “ICAM-1 expression in heart” value is “reduced”, the “MCP-1 expression in heart” value is “reduced”, the “NFκB activation in heart (phospho-IκBα)” value is “diminished” and the “macrophage expression in heart” value was “reduced”. In addition, the “superoxide production in heart (DHE)” value in experiment [1] (setting [3]) is “diminished”. For the same compound, in experiment [1] (setting [4]), the “MMP-2 protein level in heart” value was “no change”, the “MMP-8 protein expression in heart” value is recorded as “trend towards increased”, the “MMP-9 protein level in heart” value was “no change” and the “MMP-13 protein level in heart” value was “no change”. In experiment [1] (setting [4]), the “TIMP-1 protein levels in heart” value is given as “significantly decreased”; the “precursor and mature forms of collagen α1 Type I in heart (western blot)” value is recorded as “markedly reduced”. Further, in experiment [1] (setting [5]), the “TGF-β1 expression in heart” value is recorded as “downregulation” and the “synthetic myofibroblasts (α-SMA) in heart” value is “downregulation”. Moreover, in experiment [1] (~20 month old WT mice, HFI-419 500 ng/kg/min s.c., 4 weeks, FIG. 8c), the “IRAP expression in heart” value was “significantly decreased”. Further, the “age-induced cardiac collagen deposition (picrosirius red)” value in experiment [1] (~20 month old WT mice, HFI-419 500 ng/kg/min s.c., 4 weeks, FIGS. 15, 16) is “reversed age-induced collagen deposition to the same level seen in young adult mice”. Further, in experiment [2] (Ang II 800 ng/kg/min + HFI-419 500 ng/kg/min, 4 weeks, FIG. 3), the “Ang II-induced vascular fibrosis (aortic collagen, picrosirius red)” value was “prevented”. Moreover, in experiment [2] (setting [6]), the “ICAM-1 expression in aorta” value is on record as “reductions”, the “MCP-1 expression in aorta” value is “reductions”, the “P-IκBα (marker for NFκB activation) expression in aorta” value is on record as “reductions” and the “VCAM-1 expression in aorta” value was “reductions”. Besides, in experiment [2] (setting [7]), the “TGF-β1 expression in aorta” value is “decreased” and the “α-SMA expression in aorta” value is listed as “decreased”.
